Tests used:
[1] = test system: Klebsiella pneumoniae strain 3K25; experiment: Example 4: experimental infection in mice, cefotetan with or without native lactoferrin; format: in vivo; settings: p.o. 1 h after 1×10^6 CFU/mouse
Procedure: (§1) For ED50 values, a range of amounts of antibiotics is given in the examples (e.g., penicillin G: 0.4, 0.2, 0.1, 0.05 mg/mouse). To calculate the ED50, groups of mice in the monotherapy groups and groups of mice in the combined therapy groups received the indicated amount of antibiotic (e.g., one group received 0.4 mg/mouse of penicillin G, one group received 0.2 mg/mouse of penicillin G, one group received 0.1 mg/mouse of penicillin G, one group received 0.05 mg/mouse of penicillin G).
The experimental design is similar to that of Example 3. The mice groups (n=6) were intraperitoneally injected with Klebsiella pneumoniae strain 3K25, 1×10^6 CFU/mouse, and one hour after the injection, orally active cephalosporin, cefotetan (2.0, 1.0, 0.5 and 0.25 mg/mouse) was orally administered with or without native lactoferrin (0.4 mg/mouse) in 0.2 ml physiological saline.

Escherichia coli #11 = experiment: Example 6: experimental infection in mice, ampicillin with or without apolactoferrin; format: in vivo, strain ddY; settings: p.o. immediately after 1.2×10^6 CFU/mouse
Procedure: as §1
Male mice, strain ddY, five weeks old, weighing an average of 21.5 g, were randomly allocated into groups (n=10), and they were intraperitoneally injected with Escherichia coli #11, 1.2×10^6 CFU/mouse. Immediately after the injection, the untreated control group was orally given 0.2 ml of distilled water, the second through the fifth groups were treated once orally by ampicillin (8, 4, 2 and 1 mg/mouse), and the sixth through the ninth groups with ampicillin (4, 2, 1 and 0.5 mg/mouse) plus apolactoferrin (1 mg/mouse) in 0.2 ml of distilled water. The mice were fed ad libitum and observed for one week under the same conditions as described in Example 1. […] It is apparent from the results that lactoferrin not only potentiates the efficacy of the cephalosporin class but also the penicillin class of antibiotics.

Proteus mirabilis GN79 = experiment: Example 7: experimental infection in mice, ampicillin with or without native lactoferrin; format: in vivo, strain ddY; settings: GN79, po, 168 h, 1.3 × 10^6 CFU/mouse
Procedure: as §1
Male mice, strain ddY, five weeks old, were randomly allocated into groups (n=10), and were intraperitoneally injected with Proteus mirabilis GN79 (1.3×10^6 CFU/mouse) or with Escherichia coli #11 (1.7×10^6 CFU/mouse) or with Klebsiella pneumoniae 3K25 (1.5×10^6 CFU/mouse). The doses are 1,000 times greater than the minimum lethal dose. Immediately after the injection, the first eight groups were orally given ampicillin, the second eight groups were orally given cephalexin, and the third eight groups were orally given cefaclor, respectively, each simultaneously with or without native lactoferrin (1 mg/mouse) in 0.2 ml of distilled water (see Table 7). All the mice were fed ad libitum and observed for one week under the same conditions as described in Example 1.

SMILES	ED50 ([1]; cefotetan combined therapy with native lactoferrin (0.4 mg/mouse))	ED50 ([1]; cefotetan monotherapy)	ED50 (Escherichia coli #11; ampicillin combined therapy with apolactoferrin (1 mg/mouse))	ED50 (Escherichia coli #11; ampicillin monotherapy)	ED50 (Proteus mirabilis GN79; ampicillin alone)	ED50 (Proteus mirabilis GN79; ampicillin with lactoferrin (1 mg/mouse))
CO[C@@]1(NC(=O)C2SC(=C(C(N)=O)C(=O)O)S2)C(=O)N2C(C(=O)O)=C(CSc3nnnn3C)CS[C@@H]21 (stereo partly drawn) [cefotetan]	0.16 mg/mouse	0.50 mg/mouse	–	–	–	–
CC1(C)S[C@@H]2[C@H](NC(=O)[C@H](N)c3ccccc3)C(=O)N2[C@H]1C(=O)O [ampicillin]	–	–	0.75 mg/mouse	6.02 mg/mouse	133 mg/kg	24.9 mg/kg
